{"source": "patent US20170119806A1", "about": "“[…] LACTONE DERIVATIVES AND METHODS OF MAKING AND USING THEREOF” (OHIO STATE INNOVATION FOUNDATION, priority 2014, published 2017)", "key": {"CD4+ or CD8+ T cells": {"system": "CD4+ or CD8+ T cells", "assay": "T cell IFN-γ production (intracellular flow cytometry in PBMCs)", "format": "cell-based, human", "settings": "10 μM PL-C, 18 h, with IL-12 or IL-15; listed as PL-C", "protocol": "(A) Human […] were treated with DMSO vehicle control or 10 μM PL-C for 18 hours in the presence of IL-12 (10 ng/mL) or IL-15 (100 ng/mL), as described in FIG. 37C. The cells were harvested for intracellular flow cytometry to determine the frequency of IFN-γ^+ cells in CD56^−CD3^+[…] or CD56^−CD3^+CD8^+T. Representative data from 1 out of 5 donors are shown. (B) Purified primary NK cells were treated with IL-12 (10 ng/mL) or IL-15 (100 ng/mL) with or without 10 μM PL-C for 8 hours and were sequentially co-cultured with […] labeled ARH-77 cells at various effector/target cell ratios for additional 4 hours. ^51Cr release was measured by a TopCount counter. Data shown are the means of 3 donors. […] Error bars represent S.D. (C) Purified primary NK cells were treated with 10 μM PL-C in the presence of IL-12 (10 ng/mL) (top) or IL-15 (100 ng/mL) (bottom) for 12 hours, and cell pellets were harvested for detecting granzyme A (GZMA), granzyme B (GZMB), perforin (PRF1) and Fas (Fasl) mRNA expression level by real-time RT-PCR. Data shown are the means of 6 donors. p>0.05, vehicle control versus PL-C in all panels. Error bars represent S.D.\nIntracellular flow cytometry. […] Data were acquired using an LSRII (BD Biosciences) flow cytometer and analyzed using FlowJo software (Tree Star, Ashland, Oreg.)."}, "[1]": {"system": "purified primary NK cells or NKL cells", "assay": "Real-time RT-PCR of mRNA in NK cells", "format": "cell-based, human", "settings": "10 μM PL-C, 12 h", "protocol": "(A) Chemical structure of PL-C (phyllanthusmin C, 4), (9) Healthy donor PBMCs (left panel) or enriched NK cells (right panel) were treated with DMSO vehicle control or 10 μM PL-C for 18 h in the presence of […] (10 ng/mL) or IL-15 (100 ng/mL). The cells were harvested and analyzed by intracellular flow cytometry to determine the frequency of IFN-γ^+ cells in CD56^+CD3^− NK cells (n=8 for PBMC and n=5 for enriched NK). (C) Highly purified (≧99.5%) human primary NK cells were treated with 10 μM PL-C for 18 h to determine the levels of IFN-γ secretion by ELISA. IFN-γ secretion from treatment with PL-C alone (left panel) or in combination with IL-12 (10 ng/mL, middle panel) or IL-15 (100 ng/mL, right panel) is shown. (D) Cells were treated as described in (C) and harvested at 12 h, IFNG mRNA expression was assessed by real-time RT-PCR, and the relative IFNG mRNA expression of each treatment was normalized to untreated vehicle control in the same donor. Data are shown as mean±SEM (n=6 in each treatment; error bars represent SEM). *p<0.05, **p<0.01, which denote statistical comparison between the two marked treatment groups (B-D). (E) Highly purified (≧99,5%) primary human NK cells were treated with 10 μM. PL-C in combination with various concentrations of IL-12 (10, 1, and 0.1 ng/mL) or IL-15 (100, 10, and 1 ng/mL) for 24 h to determine the levels of IFN-γ secretion. Representative data from one of three donors with the similar data are shown. *p<0.05, **p<0.01, which denote statistical comparison between the two marked treatment groups and are calculated from data of all tested donors. Error bars represent SD. […]\n(A) Human […] were treated with DMSO vehicle control or 10 μM PL-C for 18 hours in the presence of IL-12 (10 ng/mL) or IL-15 (100 ng/mL), as described in FIG. 37C. […] (B) Purified primary NK cells were treated with IL-12 (10 ng/mL) or IL-15 (100 ng/mL) with or without 10 μM PL-C for 8 hours and were sequentially co-cultured with […] labeled ARH-77 cells at various effector/target cell ratios for additional 4 hours. ^51Cr release was measured by a TopCount counter. […]"}}, "note": "“Also recorded” adds a separate entry of the source."}
{"smiles": "COc1cc2c(OC3OCC(O)C(O)C3O)c3c(c(-c4ccc5c(c4)OCO5)c2cc1OC)C(=O)OC3", "note": "(stereo not shown) [Compound 4, Phyllanthusmin C]", "values": [{"measurement": "T cell IFN-γ production", "setting": "CD4+ or CD8+ T cells", "value": "little or no; also recorded: negligibly activated T cell IFN-γ production; also recorded: few, if any"}, {"measurement": "IFNG mRNA expression in NK cells", "setting": "[1]; alone or with IL-12 or IL-15", "value": "induced IFN-γ gene (IFNG) expression at the transcriptional level"}, {"measurement": "mRNA expression of IL-12R and IL-15R chains", "setting": "[1]; cotreated with IL-12", "value": "downregulated mRNA expression of IL-12Rβ1, IL-12Rβ2, and IL-15Rα"}, {"measurement": "expression of cytotoxicity-associated genes (granzyme A, granzyme B, perforin, Fas ligand)", "setting": "[1]; with IL-12 or IL-15", "value": "unaffected"}]}
